Measurements: PMC9181899, “Synthesis and Anticancer Properties of New 3-Methylidene-1-sulfonyl-2,3-dihydroquinolin-4(1H)-ones” (Molecules, 2022)
Where two headings read alike, the source gives them in different places.

Experiments:
HL-60 cells [1] = assay: MTT in vitro cytotoxicity assay, HL-60; format: cell-based; settings: Homo sapiens
Method: (§1) The promyelocytic leukemia HL-60 and breast cancer adenocarcinoma MCF-7 cell lines were purchased from the European Collection of Cell Cultures (ECACC). Leukemia cells were cultured in RPMI 1640 plus GlutaMax I medium (Gibco/Life Technologies, Carlsbad, CA, USA). MCF-7 cells were maintained in Minimum Essential Medium Eagle (Sigma Aldrich, St. Louis, MO, USA) and supplemented with 2 mM glutamine and men non-essential amino acid solution (Sigma Aldrich, St. Louis, MO, USA). Both media were supplemented with 10% heat-inactivated fetal bovine serum (Biological Industries, Beit-Haemek, Israel) and antibiotics (100 U/mL penicillin and 100 μg/mL streptomycin) (Sigma-Aldrich, St. Louis, MO, USA). Human umbilical vein endothelial cells (HUVECs) were purchased from the American Type Culture Collection (ATCC). Cells were cultured using EGM-2 Endothelial Medium BulletKit purchased from Lonza (Lonza, Walkersville, MD, USA). Cells were maintained at 37 °C in 5% CO2 atmosphere and grown until 80% confluent.
(§2) The tested compounds were dissolved in sterile dimethyl sulfoxide (DMSO) and further diluted with culture medium. The final concentration of DMSO in cell cultures was less than 0.1% v/v. Controls without and with 0.1% DMSO were performed in each experiment. At the used concentration, DMSO had no effect on the observed parameters.
(§3) The MTT (3-(4,5-dimethylthiazol-2-yl)-2,5-diphenyltetrazolium bromide) assay, which measures the activity of cellular dehydrogenases, was performed according to the Mosmann method. Exponentially growing cells were seeded into 24-well plates at a density of 8 × 10^4 cells/mL and left to grow for 24 h. After 24 h or 48 h of incubation with various concentrations of the tested compounds (dissolved in DMSO and diluted with complete culture medium), cells were incubated with 0.1 mL of MTT solution (5 mg/mL in phosphate buffered saline) for 1.5 h. The metabolically active cells reduced MTT to blue formazan crystals. The plates were centrifuged, and the supernatant was discarded. DMSO (1 mL) was added to each well to dissolve the crystals, whose absorbance was measured at 560 nm using FlexStation 3 Multi-Mode Microplate Reader (Molecular Devices, LLC, San Jose, CA, USA). The untreated cells were used as control. The IC50 values were calculated from the concentration–response curves. The data were expressed as mean ± SEM of three independent experiments.

HL-60 cells [2] = assay: Cell proliferation by BrdU incorporation, flow cytometry; format: cell-based; settings: 1.8 µM
Method: (§4) To evaluate the anticancer potential of 5a, the ability of this compound to inhibit cell proliferation, induce apoptotic cell death, and generate DNA damage was examined by flow cytometry using the ‘Apoptosis, DNA Damage, and Cell Proliferation Kit’ (BD Bioscience). After 24 h treatment with 5a in increasing concentrations, HL-60 cells were exposed to bromodeoxyuridine (BrdU) for additional 8 h. Then, the cells were simultaneously stained with fluorochrome-labeled anti-BrdU, anti-cleaved PARP (Asp214) and anti-H2AX (pS139).
BrdU is an analog of thymidine, and its incorporation into DNA was used as an index of cell proliferation. […] At 1.8 µM concentration, this analog caused a 2.2-fold decrease in BrdU incorporation (Figure 4a).
Cell proliferation, DNA damage, and apoptotic cell death were determined using Apoptosis, DNA Damage, and Cell Proliferation Kit (BD Bioscience, San Jose, CA, USA), according to the manufacturer protocol. Briefly, HL-60 cells were seeded in 6-well plates (4.0 × 10^5 cells/mL) in 2 mL of growth medium and treated with 5a for 24 h. […] Next, the cells were collected by centrifugation (300× g, 5 min), counted, fixed, and permeabilized according to the manufacturer’s instructions. […] After washing, DNA staining with DAPI (1 µg/mL of the staining buffer) was performed, and the cells were analyzed by flow cytometry using CytoFLEX (Beckman Coulter, Inc., Brea, CA, USA).

MCF-7 cells = assay: MTT in vitro cytotoxicity assay, MCF-7; format: cell-based; settings: Homo sapiens, MCF7, 48 h incubation, mean ± SEM
Method: as §1, §2, §3

HL-60 cells [3] = assay: Apoptosis by cleaved PARP (Asp214) staining, flow cytometry; format: cell-based; settings: 1.8 µM, 24 h, Figure 3b
Method: as §4
To check whether the cytotoxic effect of 5a was associated with the induction of apoptosis, the pro-apoptotic activity of this compound was investigated. Apoptosis regulation is triggered by the activation of caspases. Caspase-3, an effector caspase, cleaves a number of vital proteins, leading to cell death. The activity of caspase-3 was assessed by flow cytometry using fluorochrome-labeled antibodies recognizing 89 kDa-cleaved PARP fragments released from PARP by caspase-3 in the executive stage of apoptosis.
(§5) Cell proliferation, DNA damage, and apoptotic cell death were determined using Apoptosis, DNA Damage, and Cell Proliferation Kit (BD Bioscience, San Jose, CA, USA), according to the manufacturer protocol. Briefly, HL-60 cells were seeded in 6-well plates (4.0 × 10^5 cells/mL) in 2 mL of growth medium and treated with 5a for 24 h. Afterwards, the bromodeoxyuridine (BrdU, 10 µM) was added and the cells were incubated for additional 8 h. Next, the cells were collected by centrifugation (300× g, 5 min), counted, fixed, and permeabilized according to the manufacturer’s instructions. The cells were incubated with DNase (300 µg/mL in PBS) for 1 h at 37 °C and then simultaneously stained with fluorochrome-labeled anti-BrdU, H2AX (pS139), and cleaved PARP (Asp214) antibodies, for 20 min at room temperature. After washing, DNA staining with DAPI (1 µg/mL of the staining buffer) was performed, and the cells were analyzed by flow cytometry using CytoFLEX (Beckman Coulter, Inc., Brea, CA, USA).

HL-60 cells [4] = assay: DNA damage by H2AX (pS139) staining, flow cytometry; format: cell-based, human; settings: 24 h; for increase of phosphorylated H2AX level: vs control
Method: as §4
It is well documented that apoptosis induced by many anticancer drugs may be a consequence of DNA damage. Chemical genotoxins that target DNA can inhibit DNA replication, which leads to the collapse of replication forks and the formation of DNA double strand breaks (DSBs). The generation of DNA damage was evaluated using anti-H2AX (pS139) antibodies directed against the phosphorylated form of human H2AX protein at the pS139 residue that is considered to be a biomarker for DNA DSBs. The treatment of HL-60 cells with 5a increased the levels of phosphorylated H2AX by 4.7- and 7.8-fold (to 1.35 µM and 1.9 µM, respectively), indicating the dose-dependent genotoxic effect of the tested compound (Figure 4c).
as §5

C=C1C(=O)c2ccccc2N(S(=O)(=O)c2ccccc2)C1CC (centres unmarked) [Compound 5a, 2-Ethyl-3-methylidene-1-(phenylsulfonyl)-2,3-dihydroquinolin-4(1H)-one]
IC50 (HL-60 cells [1]; HL-60, 24 h, 24 h incubation, read-out: IC50 HL-60 after 24 h incubation): 910 ± 30 nM
IC50 (HL-60 cells [1]; HL-60, 48 h, 48 h incubation, mean ± SEM, read-out: IC50 HL-60): 340 ± 30 nM
BrdU positive cells (representative plot) (HL-60 cells [2]; 24 h, Figure 3a): 17.5%
decrease in BrdU incorporation (HL-60 cells [2]; 24 h treatment then BrdU 8 h, vs control): 2.2 fold
IC50 (MCF-7 cells): 2740 ± 70 nM
Q3: H2AX (pS139) and cleaved PARP negative cells (representative plot) (HL-60 cells [3]): 66.8%
Q4: cleaved PARP positive, H2AX (pS139) negative cells (representative plot) (HL-60 cells [3]): 15.0%
increase of phosphorylated H2AX level (HL-60 cells [4]; 1.35 µM): 4.7 fold
Q1: H2AX (pS139) positive, cleaved PARP negative cells (representative plot) (HL-60 cells [4]; 1.8 µM, Figure 3b): 5.0%
Q2: H2AX (pS139) and cleaved PARP positive cells (representative plot) (HL-60 cells [4]; 1.8 µM, Figure 3b): 13.2%
increase of phosphorylated H2AX level (HL-60 cells [4]; 1.9 µM): 7.8 fold
